The record followed here is patent US7033765B1, “Site-specific drug delivery” (Toronto Research Chemicals, Inc., priority 1997, dated 2006).

In data set [1] the target is T1, Y401C Na+ channels (mutated rat skeletal muscle sodium channel protein μ1-2) (Rattus norvegicus, UniProt P15390, Y401C).
T1 construct: expressed in transfected cells; host or cells: Xenopus laevis oocytes (injected)
Briefly: Two-electrode voltage-clamp of Y401C Na+ channels expressed in Xenopus oocytes. Format: cell-based. (Two-electrode voltage clamp holds a large cell at a set potential and records current.)

The next data set addresses T2, HH1 Na+ channels (Homo sapiens, UniProt Q14524).
T2 construct: expressed in transfected cells; host or cells: Xenopus laevis oocytes (injected)
As to the kind of experiment: Two-electrode voltage-clamp of HH1 Na+ channels recorded in oocytes. The data set is classed as cell-based. The protocol: (§1) Oocytes were removed from adult female Xenopus.laevis frogs (NASCO, Fort Atkinson, Wis.; XENOPUS, Ann Arbor, Mich.) that had been anesthetized by immersion for 10-25 minutes in a 0.25% solution of tricaine (Sigma Chemical Co., St. Louis, Mo.) in tap water. A 5-fold excess of Na^+ channel protein β subunits compared to α subunits minimized the altered gating properties of Na^+ channel proteins in oocytes. Injected oocytes were incubated at 22° C. for 24-48 hr prior to recording.
(§2) For oocyte recordings, whole-cell currents were recorded at room temperature (approximately 23° C.) using a two-electrode voltage-clamp with 3 M KCl in the pipette and a bath solution containing: 96 mM NaCl, 4 mM KCl, 1 mM MgCl2, 1 mM CaCl2 and 10 mM HEPES (pH=7.6). Electrode pipettes were fabricated from 1.2 mm outer diameter thin-walled borosilicate glass (TW120F-6, World Precision Instruments Inc., Sarasota, Fla.) pulled on a Sutter puller (model P-87). Pipette tips were broken to a diameter of approximately 0.1 mm and plugged with agar made with 3 M KCl for a final resistance of 1-4 MΩ. The circuitry of the amplifier compensated for electrode series resistance (Oocyte Clamp OC-725A, Warner Instruments Inc., Hampden, Conn., USA). Leak subtraction was accomplished using a P/8 protocol from a holding potential of −120 mV. Current was filtered at 2 kHz and digitized at 10 kHz using an IBM-compatible computer, a Warner analog-digital interface (model PP-50 Lab 1), and custom acquisition software. In order to minimize difficulties associated with voltage-clamping oocytes expressing large numbers of channel proteins, whole-cell recordings were limited to oocytes expressing less than 5 μAmps of peak current.
(§3) The desired concentrations of local channel protein anesthetic drugs in ND96 were introduced to the bath by perfusion with at least 30 mL (bath volume=0.6 mL). Total bath exchange took less than 3 minutes and the drugs were allowed to equilibrate with the oocytes for a minimum of 6 minutes prior to recording.
(§4) Current-voltage relationships were produced by stepping the membrane potential from −60 to +50 mV by increments of 5 mV from a holding potential of −80 mV. A repetition frequency of 0.2 Hz was used for such voltage families. Steady-state activation curves of whole-cell currents were calculated from the current-voltage relationships by scaling the peak currents by the net driving force (i.e., V−Erev) using the equation g=I/(V−Erev) where Erev=+45 to +60 mV. Steady-state fast-inactivation curves were constructed by normalizing the current recorded in test pulses to −10 mV following 50 msec prepulses to voltages ranging from −100 to −10 mV. A repetition frequency of 0.2 Hz was used for the steady-state inactivation protocol. Recovery from inactivation was assessed using a two-pulse protocol, in which identical depolarizing voltage pulses to −20 mV for 50 msec were applied to oocytes before (conditioning) and after (test) a variable duration repolarization to −80 mV (recovery potential). The peak current evoked by the second (test) depolarization was normalized to the amplitude of the first (conditioning) depolarization and represents the fraction of channel proteins that had recovered from inactivation during the interpulse recovery period.

The target in data set [2] is T3, skeletal muscle (rSkM1) Na+ channels (Rattus norvegicus, UniProt P15390).
T3 construct: expressed in transfected cells; host or cells: Xenopus oocytes (injected)
T3 sequence (P15390 whole entry): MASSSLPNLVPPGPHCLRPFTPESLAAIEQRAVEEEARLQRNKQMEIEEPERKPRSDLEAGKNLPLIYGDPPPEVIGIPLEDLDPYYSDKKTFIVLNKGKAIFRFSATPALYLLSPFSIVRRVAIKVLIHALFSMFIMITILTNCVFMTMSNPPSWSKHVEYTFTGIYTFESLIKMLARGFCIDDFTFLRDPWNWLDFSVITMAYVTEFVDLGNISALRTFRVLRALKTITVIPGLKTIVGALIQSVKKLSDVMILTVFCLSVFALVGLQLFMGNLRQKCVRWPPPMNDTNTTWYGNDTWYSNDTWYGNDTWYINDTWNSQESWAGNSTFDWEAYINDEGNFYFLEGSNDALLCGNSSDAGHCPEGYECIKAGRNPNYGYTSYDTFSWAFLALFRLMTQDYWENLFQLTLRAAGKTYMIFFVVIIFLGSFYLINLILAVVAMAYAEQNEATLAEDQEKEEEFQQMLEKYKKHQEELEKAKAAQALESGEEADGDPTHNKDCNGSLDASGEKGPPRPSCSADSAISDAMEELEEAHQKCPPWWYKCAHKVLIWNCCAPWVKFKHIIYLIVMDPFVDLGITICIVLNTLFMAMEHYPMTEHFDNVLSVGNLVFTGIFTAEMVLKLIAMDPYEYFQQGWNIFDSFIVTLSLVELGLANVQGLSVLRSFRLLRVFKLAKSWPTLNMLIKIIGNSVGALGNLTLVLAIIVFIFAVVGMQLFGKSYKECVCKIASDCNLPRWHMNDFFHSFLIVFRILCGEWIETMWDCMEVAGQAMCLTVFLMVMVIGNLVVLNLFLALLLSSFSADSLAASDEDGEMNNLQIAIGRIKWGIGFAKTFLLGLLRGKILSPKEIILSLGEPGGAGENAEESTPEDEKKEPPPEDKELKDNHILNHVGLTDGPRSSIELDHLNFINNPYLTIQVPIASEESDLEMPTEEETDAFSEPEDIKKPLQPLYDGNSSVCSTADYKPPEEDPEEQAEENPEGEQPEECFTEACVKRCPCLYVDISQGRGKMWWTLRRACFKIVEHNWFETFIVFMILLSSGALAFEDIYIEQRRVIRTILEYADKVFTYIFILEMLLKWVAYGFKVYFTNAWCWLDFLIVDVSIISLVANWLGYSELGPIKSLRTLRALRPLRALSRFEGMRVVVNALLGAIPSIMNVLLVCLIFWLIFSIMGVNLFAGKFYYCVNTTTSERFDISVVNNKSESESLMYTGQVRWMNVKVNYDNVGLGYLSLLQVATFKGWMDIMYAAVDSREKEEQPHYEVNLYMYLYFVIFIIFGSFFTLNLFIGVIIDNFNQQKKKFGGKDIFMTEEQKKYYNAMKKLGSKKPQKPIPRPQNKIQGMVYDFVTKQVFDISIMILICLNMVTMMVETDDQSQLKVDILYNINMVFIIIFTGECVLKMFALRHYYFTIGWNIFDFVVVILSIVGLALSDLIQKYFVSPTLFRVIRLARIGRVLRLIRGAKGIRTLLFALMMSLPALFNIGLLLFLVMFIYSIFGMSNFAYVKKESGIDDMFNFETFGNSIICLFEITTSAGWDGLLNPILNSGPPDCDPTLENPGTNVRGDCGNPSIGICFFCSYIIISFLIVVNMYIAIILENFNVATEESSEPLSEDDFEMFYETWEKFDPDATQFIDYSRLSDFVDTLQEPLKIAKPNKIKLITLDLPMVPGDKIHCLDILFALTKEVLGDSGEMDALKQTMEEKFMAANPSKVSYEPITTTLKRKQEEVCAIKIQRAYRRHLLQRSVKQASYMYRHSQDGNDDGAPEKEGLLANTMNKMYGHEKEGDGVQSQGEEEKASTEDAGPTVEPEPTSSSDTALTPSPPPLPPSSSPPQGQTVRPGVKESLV
T3 sequence (Q00954 19-218 partner): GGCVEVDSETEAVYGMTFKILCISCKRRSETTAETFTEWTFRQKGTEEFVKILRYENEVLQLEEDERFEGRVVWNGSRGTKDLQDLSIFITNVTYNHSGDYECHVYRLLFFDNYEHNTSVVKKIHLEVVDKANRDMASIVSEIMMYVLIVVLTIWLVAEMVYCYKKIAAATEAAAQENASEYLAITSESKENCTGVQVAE
Briefly: Two-electrode voltage-clamp of skeletal muscle (rSkM1) Na+ channels recorded in oocytes. The data set is classed as cell-based. How it is done:
as §1
For oocyte recordings, whole-cell currents were recorded at room temperature (approximately 23° C.) using a two-electrode voltage-clamp with 3 M KCl in the pipette and a bath solution containing: 96 mM NaCl, 4 mM KCl, 1 mM MgCl2, 1 mM CaCl2 and 10 mM HEPES (pH=7.6). Electrode pipettes were fabricated from 1.2 mm outer diameter thin-walled borosilicate glass (TW120F-6, World Precision Instruments Inc., Sarasota, Fla.) pulled on a Sutter puller (model P-87). Pipette tips were broken to a diameter of approximately 0.1 mm and plugged with agar made with 3 M KCl for a final resistance of 1-4 MΩ. The circuitry of the amplifier compensated for electrode series resistance (Oocyte Clamp OC-725A, Warner Instruments Inc., Hampden, Conn., USA). […]
as §4, with “A repetition frequency of 0.2 Hz was used for such voltage families.” left out, “A repetition frequency of 0.2 Hz was used for the steady-state inactivation protocol.” left out, “The peak current evoked by the second (test) depolarization was normalized to the amplitude of the first (conditioning) depolarization and represents the fraction of channel proteins that had recovered from inactivation during the interpulse recovery period.” left out

Data set [3] deals with T4, native heart Na+ channel proteins (Rattus norvegicus, UniProt P15389).
T4 construct: native heart Na^+ channel proteins in isolated rat ventricular myocytes; endogenous in cells; host or cells: isolated rat ventricular myocytes
As to the kind of experiment: Patch-clamp recording of native heart Na+ channels in isolated rat ventricular myocytes. The data set is classed as cell-based. The protocol:
Similar recording methods were used with isolated rat ventricular myocytes using the patch-clamp recording technique.
(§5) Preliminary studies have been performed on four prototypes of the drug illustrated in FIG. 3. Studies using these drugs were performed on three distinct types of Na^+ channel proteins: skeletal muscle Na^+ channel proteins expressed in Xenopus sp. oocytes, native heart Na^+ channel proteins in isolated rat ventricular myocytes and mutated skeletal muscle Na^+ channel proteins (i.e., Y401C) in which the naturally occurring tyrosine at position 401 was replaced with cysteine, the residue naturally found in heart. Native heart Na^+ channel proteins and Y401C channel proteins are referred to as “heart-like” Na^+ channel proteins.
For orientation: Patch clamp records ionic current or voltage across a cell membrane.

For a further data set, the system named is Na+ channel proteins. As to the kind of experiment: Whole-cell Na+ current recordings with site-specific agents (channel type not stated). To be noted: for slow component of recovery from inactivation in modified channels: FIG. 8B. Format: cell-based. The protocol:
as §2, §3, §4, §5

A further data set deals with cardiac Na+ channels. Briefly: DTT and Cd2+ test of C2 anchoring to the pore cysteine. The data set is classed as cell-based. From the text:
To determine the role of the cysteine in the pore of cardiac Na^+ channel proteins, effects of C2 on Na^+ channel proteins were examined in the presence of Cd^2+ and dithiothreitol (DTT). […] Thus, it appears that C2 is linked to the Na^+ channel protein via a disulfide bond.
Cd^2+ binds with very high affinity to free sulfhydryls but not disulfide linked sulfhydryls. To determine whether the cysteines are binding to the drug, after washout of the C2 from Na^+ channel proteins channel proteins, Cd^2+ was added. […] Following DTT application, C2 modified channel proteins restore their sensitivity to Cd^2+ and this restoration occurs simultaneous with the reversal of the local anesthetic effects.

Setting [4] is: during application of 500 μM C2.
The mark [5] stands for this setting: repetitive depolarization to −10 mV at 10 Hz, 30 μM lidocaine.
The mark [6] stands for this setting: with 30 μM lidocaine, Y401C channels.
The mark [7] stands for this setting: with 30 μM lidocaine, HH1 channels.

T1 sequence (P15390 whole entry Y401C): as the sequence (P15390 whole entry) above, with Y401C counted along it
T1 sequence (Q00954 19-218 partner): as the sequence (Q00954 19-218 partner) above
T2 sequence (Q14524 whole entry): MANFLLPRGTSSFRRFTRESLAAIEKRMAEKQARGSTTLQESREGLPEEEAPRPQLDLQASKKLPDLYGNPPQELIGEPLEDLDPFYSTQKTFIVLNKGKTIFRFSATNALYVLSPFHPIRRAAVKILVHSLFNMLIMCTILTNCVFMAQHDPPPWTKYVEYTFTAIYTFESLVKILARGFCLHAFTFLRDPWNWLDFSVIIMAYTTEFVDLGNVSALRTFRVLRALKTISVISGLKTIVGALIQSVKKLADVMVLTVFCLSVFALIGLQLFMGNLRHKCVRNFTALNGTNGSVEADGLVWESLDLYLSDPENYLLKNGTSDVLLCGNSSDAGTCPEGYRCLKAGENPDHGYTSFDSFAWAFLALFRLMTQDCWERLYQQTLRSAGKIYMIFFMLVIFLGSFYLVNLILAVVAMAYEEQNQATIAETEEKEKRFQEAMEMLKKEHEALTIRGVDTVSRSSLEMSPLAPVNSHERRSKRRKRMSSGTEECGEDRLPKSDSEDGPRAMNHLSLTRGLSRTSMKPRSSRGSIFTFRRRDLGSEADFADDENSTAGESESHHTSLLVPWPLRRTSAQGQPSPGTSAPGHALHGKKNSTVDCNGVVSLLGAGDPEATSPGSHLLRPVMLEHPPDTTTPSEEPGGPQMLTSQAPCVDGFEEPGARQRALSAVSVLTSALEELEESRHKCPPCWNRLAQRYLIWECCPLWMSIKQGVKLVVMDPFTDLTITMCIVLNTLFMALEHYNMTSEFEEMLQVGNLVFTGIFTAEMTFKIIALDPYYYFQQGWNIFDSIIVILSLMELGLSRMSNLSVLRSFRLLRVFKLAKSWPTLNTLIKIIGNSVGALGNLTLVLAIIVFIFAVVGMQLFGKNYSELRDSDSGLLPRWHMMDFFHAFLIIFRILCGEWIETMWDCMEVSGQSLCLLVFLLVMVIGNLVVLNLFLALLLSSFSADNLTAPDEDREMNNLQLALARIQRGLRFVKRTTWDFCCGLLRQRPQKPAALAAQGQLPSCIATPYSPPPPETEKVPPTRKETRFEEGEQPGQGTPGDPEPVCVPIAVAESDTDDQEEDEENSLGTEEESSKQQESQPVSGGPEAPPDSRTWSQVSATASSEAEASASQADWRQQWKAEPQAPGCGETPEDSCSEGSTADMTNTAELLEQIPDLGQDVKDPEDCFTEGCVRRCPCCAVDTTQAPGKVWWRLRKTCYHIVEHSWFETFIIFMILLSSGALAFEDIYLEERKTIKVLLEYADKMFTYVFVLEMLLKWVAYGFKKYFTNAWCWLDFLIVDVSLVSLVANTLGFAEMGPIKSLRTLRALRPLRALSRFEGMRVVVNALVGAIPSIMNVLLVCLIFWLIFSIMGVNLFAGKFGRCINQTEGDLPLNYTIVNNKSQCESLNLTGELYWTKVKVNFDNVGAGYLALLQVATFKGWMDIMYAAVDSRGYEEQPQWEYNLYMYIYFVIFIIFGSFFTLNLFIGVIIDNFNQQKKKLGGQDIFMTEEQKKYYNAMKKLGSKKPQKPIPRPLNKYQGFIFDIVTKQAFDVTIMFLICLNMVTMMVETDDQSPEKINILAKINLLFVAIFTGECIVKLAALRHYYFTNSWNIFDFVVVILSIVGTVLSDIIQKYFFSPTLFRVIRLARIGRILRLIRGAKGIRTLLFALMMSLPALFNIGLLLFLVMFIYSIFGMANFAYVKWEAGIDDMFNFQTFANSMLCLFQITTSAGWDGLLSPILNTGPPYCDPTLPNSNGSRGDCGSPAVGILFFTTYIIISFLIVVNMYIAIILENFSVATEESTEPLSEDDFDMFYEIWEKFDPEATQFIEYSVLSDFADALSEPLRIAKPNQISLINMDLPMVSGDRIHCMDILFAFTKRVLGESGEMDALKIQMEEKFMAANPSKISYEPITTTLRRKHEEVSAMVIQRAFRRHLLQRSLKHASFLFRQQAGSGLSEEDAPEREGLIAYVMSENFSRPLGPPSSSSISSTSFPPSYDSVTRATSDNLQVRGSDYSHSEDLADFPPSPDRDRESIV

`CS(=O)(=O)SCCOC(=O)c1ccc(N)cc1` [Formula C2, 4-(4-aminophenyl)-4-oxo-3-oxabutyl methanethiosulfonate]: the melting point was 112 to 113 °C. In addition, the “reversibility of effects on washout” value in data set [1] (Y401C channels) is reported as “inability to wash out”. The “time constant for recovery from inactivation” value (shortened to “time constant for recovery”) in data set [1] (after C2 application (washout)) stood at 40.4 ms. Further, the “time constant for recovery” value in data set [1] (setting [4]) came to 39.0 ms. The “time constant for recovery” value on HH1 Na+ channels (after the application of C2 (washout)) is 66 ms. At HH1 Na+ channels (setting [4]), the “time constant for recovery” value was 45 ms. For the same compound, the “time constant for recovery” value in data set [2] (after C2 washout) was 13.7 ms. Besides, the “time constant for recovery” value in data set [2] (in the presence of 500 μM C2) was 56.7 ms. Besides, the reversibility on washout entry in data set [2] (skeletal tissue) is “washed out”. The “reversibility of binding on washout” value in data set [3] was “irreversible”. In addition, in the data set with Na+ channel proteins, the “use-dependence of Na+ channel current inhibition” value is listed as “very little use-dependent block” and the “slow component of recovery from inactivation in modified channels” value was “not observed”. Further, in the data set with Na+ channel proteins (100 μM to 1 mM), the recovery from inactivation entry is recorded as “slowing”, the steady-state inactivation curve entry was “leftward shifts”, the “whole-cell Na+ current” value is recorded as “decreases” and the “whole-cell Na+ current decay following channel activation” value is on record as “enhanced rates”. The “shift of the sensitivity of the channels to block by lidocaine” value in the data set with Na+ channel proteins (C2 anchoring, FIG. 9) is “nearly two orders of magnitude”. Moreover, the “reversal of the current decrease by DTT” value with cardiac Na+ channels (10 mM DTT after C2 washout) was “completely reversed”. Besides, the “block of Na+ current by μM Cd2+ after washout of the agent” value in the data set on cardiac Na+ channels (Cd2+ added after C2 washout) is reported as “no longer blocked”. Moreover, the “change of whole-cell currents” value with cardiac Na+ channels (following C2 washout (FIG. 7A)) is on record as “decreased”. In the data set with cardiac Na+ channels (presence of DTT), the “effect of DTT on the irreversible binding after washout” value is listed as “totally inhibited”.
Turning to `CS(=O)(=O)SCCCCCCOC(=O)c1ccc(N)cc1` [Formula C6, 8-(4-aminophenyl)-8-oxo-7-oxaoctyl methanethiosulfonate], the melting point fell in the range of 85 to 86 °C. Besides, the “potency relative to C2” value with Na+ channel proteins is on record as “far more potent than C2”.
In turn, `CS(=O)(=O)SCCCCCCCCCCOC(=O)c1ccc(N)cc1` [Formula C10, 12-(4-aminophenyl)-12-oxo-11-oxadodecyl methanethiosulfonate] gave a melting point of 73 to 74 °C.
Turning to `Cc1cccc(C)c1NC(=O)CNCCSS(C)(=O)=O` [Formula T2, 1-(2,6-dimethylphenyl)-2,8,8-trioxo-1,4-diaza-7,8-dithianonane], the “use-dependence of Na+ channel current inhibition” value in the data set on Na+ channel proteins was “use-dependent”.
`CCOC(=O)c1ccc(N)cc1` [benzocaine, reference compound]: the “slow component of recovery from inactivation in modified channels” value in the data set with Na+ channel proteins is on record as “not observed”.
As for `CCN(CC)CC(=O)Nc1c(C)cccc1C` [lidocaine, reference compound], the use-dependent block result (in data set [1] (setting [5]); on HH1 Na+ channels (setting [5])) was “use-dependent block” in each case. Moreover, the results for the “tfast, first rapid phase of recovery from inactivation” value (in data set [1] (setting [6]); at HH1 Na+ channels (setting [7])) were 5.0 ms and 16.11 ms, respectively. Also, the results for the “tslow, second slow component of recovery from inactivation” value (in data set [1] (setting [6]); on HH1 Na+ channels (setting [7])) were 365 ms and 763 ms, respectively.

Usually melting point stands for the temperature of the solid-liquid transition.
